Data taken from patent US4721715A, “Derivatives of 4-(arylpiperazinyl-ethylaminoethoxy) phenol useful for effecting hypolipidemic therapy or cardiovascular therapy” (Societe Cortial, S.A., priority 1984, dated 1988).
Structures can show the parent of a compound that is named as a salt. Where two headings read alike, the source gives them in different places.

How the values were obtained:
[1] = test system: phenylephrine-induced hypertension; assay: Alpha-blocking activity in vivo: antagonism of phenylephrine-induced hypertension in rats with spinal cord removal and bivagotomy; conditions: Rattus norvegicus, intravenous
Description: (§1) Alpha-blocking activity was determined in vivo in mice with the test involving inhibition of mydriasis induced by norepinephrine. […] Thirty minutes later, 0.75 mg/kg norepinephrine was administered intravenously. […] In vivo alpha-blocking activity was also evaluated by determination of antagonism of phenylephrine-induced hypertension. The test products were administered by the intravenous route to rats that had undergone spinal cord removal and bivagotomy according to the technique by J. S. Gillespie and T. S. Muir (Br. J. Pharmac. Chemother. 30:78-87, 1967). The dosage, maximum activity, and the interval after which residual activity was equal to 50% of the maximum activity are presented below: […]

[2] = test system: stereotypy induced by apomorphine; assay: Neuroleptic activity: inhibition of apomorphine-induced stereotypy in rats; conditions: 100 mg/kg intraperitoneal, apomorphine 2.5 mg/kg subcutaneous
[3] = test system: norepinephrine-induced mydriasis; assay: Alpha-blocking activity in vivo: inhibition of norepinephrine-induced mydriasis in mice; conditions: 30 min before 0.75 mg/kg norepinephrine IV
Description: as §1

[4] = test system: mice with hypercholesterolemia; assay: Hypolipidemic activity in mice with diet-induced hypercholesterolemia; format: in vivo; conditions: oral 100 mg/kg on the sixth and seventh day
Description: Hypolipidemic Activity: In mice with hypercholesterolemia produced by a diet high in cholesterol and cholic acid fed for seven days, administration of an oral dose of 100 mg/kg COR 2865 on the sixth and seventh day brought about a reduction in serum cholesterol of 31% and a reduction of HP-betalipoproteins of 38% as well as a decrease in the VLDL+LDL/cholesterol ratio.

[5] = test system: spontaneously hypertensive rats; assay: Antihypertensive activity, spontaneously hypertensive rats, oral, arterial pressure at the tail; format: in vivo; conditions: 100 mg/kg
Description: In another experiment that was also performed with oral administration in spontaneously hypertensive rats, arterial pressure was measured indirectly at the tail two, four and six hours after administration.

[6] = Toxicity, oral administration to mice; format: in vivo; conditions: mouse, in vivo, oral route, confidence interval in parentheses
[7] = Toxicity, intravenous administration to mice; format: in vivo; conditions: mouse, in vivo, intravenous, read-out: mortality rate
[8] = test system: mice; assay: Toxicity, intravenous administration to mice; format: in vivo; conditions: intravenous, 6.2 mg/kg
[9] = test system: climbing induced by apomorphine; assay: Neuroleptic activity: climbing test (apomorphine) in mice; format: in vivo; conditions: apomorphine 1.5 mg/kg
Description: The neuroleptic activity of COR 2865 was determined in the climbing test. […] They were given 1.5 mg/kg apomorphine in order to induce a maximum climbing level.

[10] = test system: mice; assay: Toxicity, intraperitoneal administration to mice; conditions: mice, intraperitoneal dose of 200 mg per kg

## CCOc1ccccc1N1CCN(CCOc2cc(C)c(O)cc2C(C)C)CC1 [COR 2865, 5-Isopropyl-2-methyl-4-((2-ethoxyphenyl)piperazinylethoxy) phenol hydrochloride]
[1]; 2 min, after 2 min
  ED50: 0.0117 µmol/kg
[1]; 0.5 h, after 30 min
  ED50: 0.318 µmol/kg
[1]; 1 h, after 60 min
  ED50: 0.5 µmol/kg
[1]; 10^-6 M/kg, read-out: maximum activity (antagonism of phenylephrine-induced hypertension)
  inhibition in vivo at 1 µM, 1 µmol/kg: 122%
[2]
  inhibition of apomorphine-induced stereotypy: 67%
[3]; 1 mg/kg intraperitoneal
  inhibition of mydriasis: 54%
[3]; 2.5 mg/kg intraperitoneal
  inhibition of mydriasis: 80%
[4]
  reduction in serum cholesterol: 31%
  reduction of HP-betalipoproteins: 38%
[5]; four hours after administration
  pressure reduction: 21%
[5]; six hours after administration
  pressure reduction: 23%
[5]; two hours after administration
  pressure reduction: 19%
[6]
  LD50: 1440 mg/kg
[7]; 12.5 mg/kg
  mortality: 10%
[7]; 25 mg/kg
  mortality: 20%
[7]; 50 mg/kg
  mortality: 5%
[7]; 100 mg/kg
  mortality: 90%
[8]
  deaths: no deaths
[9]; 10 mg per kg intraperitoneal
  inhibition of the climbing induced by apomorphine: 83%
[9]; 25 mg/kg intraperitoneal
  inhibition of the climbing induced by apomorphine: 100%
[10]
  deaths: no deaths
